In patent publication US20120077837A1, “ANTI-TUMOR AGENT” (EISAI R&D MANAGEMENT CO., LTD., priority 2010, published 2012):

System: human renal cell carcinoma cell line (Caki-1)
Experiment: Tumor growth-inhibitory action by combined use of Compound A and everolimus in nude mice transplanted with Caki-1
Type: in vivo
Conditions: subcutaneous Caki-1 xenograft, oral once per day, Compound A 10 mg/kg, everolimus 30 mg/kg
Method: Using 5 individuals per group of nude mice (CAnN.Cg-Foxn1nu/Cr1Cr1j, female, Charles River Japan, Inc.), the antitumor effect obtained when Compound A, everolimus or the both compounds was/were administered was evaluated. Human-derived renal cell carcinoma cell line Caki-1(ATCC) was added to a medium (RPMI-1640, Wako Pure Chemical Industries, Ltd.) to a density of 2×10^8 cells/mL and suspended therein. To the resulting suspension, an equal volume of Matrigel™ matrix (Nippon Becton Dickinson Co., Ltd.) was added, and the resulting mixture was mixed sufficiently. The mixture was subcutaneously transplanted at the left flank of each mouse in an amount of 0.1 mL.
Forty eight days after the transplantation, the major axis and the minor axis were measured using an electronic digital caliper (Digimatic™ caliper, Mitutoyo Corporation). The mice were separated into groups such that the average value of the tumor volume is almost the same among the groups. The volume of the tumor was calculated according to the equation below.
Tumor volume=major axis (mm)×minor axis (mm)×minor axis (mm)/2
Compound A was dissolved in purified water to a concentration of 1 mg/mL. Further, everolimus was suspended in a mixed solution of DMSO, Tween 80 and glucose (3.5:6.5:90 (V/V/V), hereinafter referred to as solvent) to a concentration of 3 mg/mL.
To the mice of each group, the Compound A solution and the solvent, the everolimus suspension and purified water, or the Compound A solution and the everolimus suspension were orally administered in an amount of 10 mL/kg once per day for 15 days. The doses of Compound A and everolimus were 10 mg/kg and 30 mg/kg, respectively. To the control group, 10 mL/kg each of purified water and the solvent was administered.
The tumor volume of each mouse was measured on Day 4, 7, 11 and 14 after the beginning of the administration. The ratio of the tumor volume observed on each day of the measurement relative to the tumor volume observed on the day when the administration was begun was calculated as the relative tumor volume (hereinafter referred to as RTV).

[1] = Day 4 after beginning of administration
[2] = Day 7 after beginning of administration
[3] = Day 11 after beginning of administration
[4] = Day 14 after beginning of administration

Structure (SMILES)	relative tumor volume (RTV) [1]	relative tumor volume (RTV) [2]	relative tumor volume (RTV) [3]	relative tumor volume (RTV) [4]
COc1cc2nccc(Oc3ccc(NC(=O)NC4CC4)c(Cl)c3)c2cc1C(N)=O [Compound A, 4-[3-chloro-4-(cyclopropylaminocarbonyl)aminophenoxy]-7-methoxy-6-quinolinecarboxamide]	1.15	1.15	1.07	1.02
COC1CC2CCC(C)C(O)(O2)C(=O)C(=O)N2CCCCC2C(=O)OC(C(C)CC2CCC(OCCO)C(OC)C2)CC(=O)C(C)/C=C(\C)C(O)C(OC)C(=O)C(C)CC(C)/C=C/C=C/C=C/1C (centres unmarked) [Everolimus, 42-O-(2-hydroxyethyl)-rapamycin]	1.03	0.97	0.95	0.92
